{
  "source": "ChEMBL document CHEMBL5465560",
  "about": "“Selectivity Literature for EUbOPEN Chemogenomic Library” (2024)",
  "key": {"[1]": {"target": "T1, Serine/threonine-protein kinase TAO2 (Homo sapiens) (UniProt Q9UL54)", "T1 sequence (whole entry)": "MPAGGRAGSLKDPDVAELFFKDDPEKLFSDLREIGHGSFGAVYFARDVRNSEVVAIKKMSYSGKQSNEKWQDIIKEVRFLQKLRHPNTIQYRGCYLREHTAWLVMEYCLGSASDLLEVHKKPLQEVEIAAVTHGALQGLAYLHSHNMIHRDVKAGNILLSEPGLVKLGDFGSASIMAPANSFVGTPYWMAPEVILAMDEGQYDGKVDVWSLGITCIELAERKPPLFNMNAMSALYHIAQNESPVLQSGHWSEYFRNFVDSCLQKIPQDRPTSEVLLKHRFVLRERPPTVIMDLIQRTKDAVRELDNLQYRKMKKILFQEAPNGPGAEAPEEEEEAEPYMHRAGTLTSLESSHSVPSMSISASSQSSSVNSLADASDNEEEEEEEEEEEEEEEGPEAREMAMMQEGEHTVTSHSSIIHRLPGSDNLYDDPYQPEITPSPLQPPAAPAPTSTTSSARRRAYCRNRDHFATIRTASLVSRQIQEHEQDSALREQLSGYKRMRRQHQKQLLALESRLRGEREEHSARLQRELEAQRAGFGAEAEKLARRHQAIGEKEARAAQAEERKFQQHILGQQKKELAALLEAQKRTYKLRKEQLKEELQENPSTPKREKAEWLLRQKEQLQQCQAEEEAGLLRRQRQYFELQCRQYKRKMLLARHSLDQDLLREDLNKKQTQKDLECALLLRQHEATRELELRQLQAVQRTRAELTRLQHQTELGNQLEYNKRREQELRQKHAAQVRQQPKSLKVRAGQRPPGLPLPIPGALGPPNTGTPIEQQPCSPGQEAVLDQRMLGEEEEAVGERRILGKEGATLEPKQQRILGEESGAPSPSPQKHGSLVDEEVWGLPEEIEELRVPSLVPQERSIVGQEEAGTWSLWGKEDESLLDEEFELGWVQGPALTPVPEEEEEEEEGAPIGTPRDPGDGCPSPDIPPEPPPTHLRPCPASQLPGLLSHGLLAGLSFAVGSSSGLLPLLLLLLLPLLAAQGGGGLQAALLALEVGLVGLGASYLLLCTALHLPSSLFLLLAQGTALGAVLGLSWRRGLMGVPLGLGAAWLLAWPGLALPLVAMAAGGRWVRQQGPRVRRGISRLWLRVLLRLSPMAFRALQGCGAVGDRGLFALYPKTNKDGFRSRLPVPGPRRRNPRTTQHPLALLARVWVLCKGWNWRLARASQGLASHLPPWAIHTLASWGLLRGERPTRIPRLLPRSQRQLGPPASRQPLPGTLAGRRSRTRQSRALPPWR", "assay": "Selectivity interaction (Kinase panel (Z-LYTE Assay)) EUB0001632a TAOK2", "conditions": "at 10 µM"}, "[2]": {"target": "T2, Serine/threonine-protein kinase D2 (Homo sapiens) (UniProt Q9BZL6)", "T2 sequence (whole entry)": "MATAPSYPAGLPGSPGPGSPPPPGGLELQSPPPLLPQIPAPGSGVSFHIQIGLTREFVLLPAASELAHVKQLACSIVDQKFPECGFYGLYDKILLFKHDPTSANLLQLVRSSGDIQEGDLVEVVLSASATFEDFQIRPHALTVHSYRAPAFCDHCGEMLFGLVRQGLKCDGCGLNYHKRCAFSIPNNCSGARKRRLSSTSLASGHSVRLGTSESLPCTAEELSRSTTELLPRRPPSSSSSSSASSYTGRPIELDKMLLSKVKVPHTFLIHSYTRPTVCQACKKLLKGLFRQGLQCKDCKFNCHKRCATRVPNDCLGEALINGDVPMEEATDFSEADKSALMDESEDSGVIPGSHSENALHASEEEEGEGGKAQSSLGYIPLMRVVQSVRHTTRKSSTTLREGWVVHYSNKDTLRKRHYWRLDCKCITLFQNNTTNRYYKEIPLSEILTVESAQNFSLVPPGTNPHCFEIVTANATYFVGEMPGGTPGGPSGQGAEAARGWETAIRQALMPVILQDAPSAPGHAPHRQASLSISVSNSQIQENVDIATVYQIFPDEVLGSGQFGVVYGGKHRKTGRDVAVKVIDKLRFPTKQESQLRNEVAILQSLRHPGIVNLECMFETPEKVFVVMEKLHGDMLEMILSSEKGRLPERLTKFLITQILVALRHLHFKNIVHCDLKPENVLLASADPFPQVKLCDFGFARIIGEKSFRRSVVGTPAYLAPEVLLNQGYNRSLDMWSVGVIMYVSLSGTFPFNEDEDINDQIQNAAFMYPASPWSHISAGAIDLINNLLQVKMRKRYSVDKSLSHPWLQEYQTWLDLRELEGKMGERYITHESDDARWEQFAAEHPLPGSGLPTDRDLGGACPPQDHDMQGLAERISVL", "assay": "Selectivity interaction (ActivX KiNativ screen (kinase selectivity in THP-1 cell lysates)) EUB0000639a PRKD2", "format": "subcellular", "conditions": "lysate, at 5 µM"}, "[3]": {"target": "Ribosomal protein S6 kinase alpha-6 (Homo sapiens, UniProt Q9UK32)", "sequence (Q9UK32 whole entry)": "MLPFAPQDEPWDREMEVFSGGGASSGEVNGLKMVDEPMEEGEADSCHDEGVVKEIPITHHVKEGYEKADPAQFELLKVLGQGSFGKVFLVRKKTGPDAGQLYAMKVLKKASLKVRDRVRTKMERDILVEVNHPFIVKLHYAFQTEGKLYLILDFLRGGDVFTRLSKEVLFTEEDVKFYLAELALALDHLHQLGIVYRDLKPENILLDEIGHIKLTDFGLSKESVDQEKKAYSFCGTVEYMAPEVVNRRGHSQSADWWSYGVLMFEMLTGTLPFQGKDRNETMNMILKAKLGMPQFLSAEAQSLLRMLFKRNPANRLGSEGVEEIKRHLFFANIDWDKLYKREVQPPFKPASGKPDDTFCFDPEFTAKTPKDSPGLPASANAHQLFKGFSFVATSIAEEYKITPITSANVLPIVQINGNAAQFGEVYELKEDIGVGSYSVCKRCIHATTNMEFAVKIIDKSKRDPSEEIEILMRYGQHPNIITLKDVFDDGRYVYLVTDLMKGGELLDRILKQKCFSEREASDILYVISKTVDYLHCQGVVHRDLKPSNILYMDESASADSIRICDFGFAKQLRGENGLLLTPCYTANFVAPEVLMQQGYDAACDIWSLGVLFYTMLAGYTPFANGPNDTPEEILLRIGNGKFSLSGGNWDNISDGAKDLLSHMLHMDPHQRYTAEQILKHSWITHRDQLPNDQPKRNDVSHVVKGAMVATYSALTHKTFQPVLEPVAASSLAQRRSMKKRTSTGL", "assay": "Selectivity interaction (KinomeScan (DiscoverX)) EUB0000695a RPS6KA6", "conditions": "at 100 nM"}, "[4]": {"target": "Mitogen-activated protein kinase 8 (Homo sapiens, UniProt P45983)", "sequence (P45983 whole entry)": "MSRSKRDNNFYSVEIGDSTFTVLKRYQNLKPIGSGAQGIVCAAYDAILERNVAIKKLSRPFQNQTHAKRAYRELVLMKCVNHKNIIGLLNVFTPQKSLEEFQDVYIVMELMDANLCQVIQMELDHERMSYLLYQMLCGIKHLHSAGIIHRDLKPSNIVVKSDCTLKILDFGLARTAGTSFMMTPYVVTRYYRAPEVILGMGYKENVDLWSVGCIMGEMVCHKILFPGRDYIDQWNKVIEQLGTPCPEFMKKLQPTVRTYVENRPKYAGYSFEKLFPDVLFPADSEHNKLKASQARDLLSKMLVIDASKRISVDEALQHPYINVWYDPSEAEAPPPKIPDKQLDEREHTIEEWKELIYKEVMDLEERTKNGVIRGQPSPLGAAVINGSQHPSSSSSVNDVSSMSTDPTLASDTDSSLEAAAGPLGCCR", "assay": "Selectivity interaction (KinomeScan (DiscoverX)) EUB0000045b MAPK8"}, "[5]": {"target": "Tyrosine-protein kinase Fer (Homo sapiens) (UniProt P16591)", "sequence (P16591 whole entry, looked up)": "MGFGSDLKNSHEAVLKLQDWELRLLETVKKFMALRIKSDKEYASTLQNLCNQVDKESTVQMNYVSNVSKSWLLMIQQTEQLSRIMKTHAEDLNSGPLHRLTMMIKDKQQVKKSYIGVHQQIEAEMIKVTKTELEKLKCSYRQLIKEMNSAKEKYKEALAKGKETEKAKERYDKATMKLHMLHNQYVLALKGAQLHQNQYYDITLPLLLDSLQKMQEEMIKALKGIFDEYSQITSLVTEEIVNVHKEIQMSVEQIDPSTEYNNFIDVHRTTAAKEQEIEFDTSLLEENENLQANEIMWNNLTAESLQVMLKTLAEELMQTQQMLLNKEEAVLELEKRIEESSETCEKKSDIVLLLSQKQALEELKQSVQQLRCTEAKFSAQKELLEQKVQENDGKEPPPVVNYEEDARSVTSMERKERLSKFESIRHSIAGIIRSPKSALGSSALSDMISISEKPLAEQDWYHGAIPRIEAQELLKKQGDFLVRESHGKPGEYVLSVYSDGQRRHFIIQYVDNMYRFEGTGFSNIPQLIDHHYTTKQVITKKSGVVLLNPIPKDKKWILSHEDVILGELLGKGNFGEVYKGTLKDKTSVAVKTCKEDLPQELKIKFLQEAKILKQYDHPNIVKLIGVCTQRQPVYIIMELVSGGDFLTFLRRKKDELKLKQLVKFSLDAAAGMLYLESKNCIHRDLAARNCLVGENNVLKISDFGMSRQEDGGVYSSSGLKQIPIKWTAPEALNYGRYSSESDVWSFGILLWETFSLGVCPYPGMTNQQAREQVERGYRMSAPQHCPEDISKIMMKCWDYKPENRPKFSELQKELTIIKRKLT", "assay": "Selectivity interaction (ActivX KiNativ screen (ex vivo kinase selectivity in human PBMCs)) EUB0001619a FER", "format": "cell-based", "conditions": "PBMC, at 1 µM"}},
  "data": [
    {"smiles": "Cn1cc(-n2cnc3c(NCc4nc5cc(Cl)c(Cl)cc5[nH]4)nc(N4CCOCC4)nc32)cn1", "values": [
      {"measurement": "% of control", "setting": "[1]", "result": 41.6, "unit": "%"}
    ]},
    {"smiles": "CC[C@@H]1[C@H](F)C(=O)N[C@@H]1COc1nccc2cc(C(N)=O)c(OC)cc12", "note": "[ZIMLOVISERTIB]", "values": [
      {"measurement": "% of inhibition", "setting": "[2]", "result": 8.9, "unit": "%"}
    ]},
    {"smiles": "Cc1cc(F)c(C(=O)Nc2cccc(-c3nncn3C(C)C)n2)cc1-n1cnc(C2CC2)c1", "values": [
      {"measurement": "% of control", "setting": "[3]", "result": 22, "unit": "%"}
    ]},
    {"smiles": "C=CC(=O)Nc1cc(-n2c(=O)ccc3cnc4ccc(-c5ccc(NS(C)(=O)=O)cc5)cc4c32)ccc1C", "values": [
      {"measurement": "% of control", "setting": "[4]; at 1 µM", "result": 93, "unit": "%"},
      {"measurement": "% of control", "setting": "[4]; at 10 µM", "result": 14, "unit": "%"}
    ]},
    {"smiles": "N#Cc1cccc(-c2c[nH]c3ncnc(N4CCOCC4)c23)c1", "values": [
      {"measurement": "% of inhibition", "setting": "[5]", "result": 2, "unit": "%"}
    ]}
  ]
}
